Data set [1] has as its system HT-29 (human colon carcinoma). Put plainly: MTT cytotoxicity assay, HT-29. It is filed as cell-based. Conditions: Homo sapiens, HT-29, 72 h, maximal tested concentration 20.0 μM. The protocol:
(§1) The cytotoxicity of ligustrazine-triterpenes derivatives was evaluated on five tumor cell lines (Bel-7402, HepG2, HT-29, Hela, and MCF-7) using the standard MTT assay. In the study, the antineoplastic drug cisplatin (DDP) was selected as the positive control. The MDCK cell line was used to test the toxicity of the ligustrazine-triterpenes derivatives and DDP.
(§2) The cell lines Bel-7402 (human hepatocellular carcinoma), HepG2 (human hepatocellular carcinoma), HT-29 (human colon carcinoma), Hela (human cervical cancer), MCF-7 (human breast cancer) were included in this study. All these cell lines were provided by the Chinese Academy of Medical Sciences & Peking Union Medical College. Cultures were maintained as monolayers in RPMI 1640 supplemented with 10% (v/v) heat inactivated fetal bovine serum and 1% (v/v) enicillin/streptomycin (Thermo Technologies, New York, NY, USA) at 37 °C in a humidified atmosphere with 5% CO2. The ligustrazine derivatives under study were dissolved in DMSO (Sigma, St. Louis, MO, USA) and added at required concentrations to the cell culture. Cells incubated without the preparations served as the control.
(§3) The cytotoxicity of the compounds was evaluated on five cancer cell lines (Bel-7402, HepG2, HT-29, Hela, MCF-7) by the standard MTT assay. In short, exponentially growing cells were seeded into 96-well plates at a density 10^4 cells/mL. The plates were incubated at 37 °C in a humidified 5% CO2 atmosphere. Cells were allowed to adhere to the surface for 24 h and then treated with serial dilutions of the compounds for 72 h. Later, aliquots of [3-(4,5-dimethylthiazol-2-yl)-2,5-diphenyltetrazolium bromide] (MTT) solution (20 μL, 5 mg/mL) were added to each well and the incubation was continued for an additional 4 h. Then the supernatant medium was thrown away. The dark blue formazan crystals formed within the healthy cells were solubilized with DMSO (150 μL) and the absorbance was measured in a plate reader (BIORAD 550 spectrophotometer, Bio-rad Life Science Development Ltd., Beijing, China) at 490 nm. Wells containing no drugs were used as control group. The IC50 values were defined as the concentration of compounds that produced a 50% reduction of surviving cells and calculated using Logit-method. Tumor cell growth inhibitory rate was calculated in the following Equation (1): % inhibition = (1 − Sample group OD/Control group OD) × 100% (1)

For data set [2], the system named is HepG2 (human hepatocellular carcinoma). Put plainly: MTT cytotoxicity assay, HepG2. It is filed as cell-based. Particulars: Homo sapiens, HepG2, 72 h, 72 h, maximal tested concentration 20.0 μM. How it is done: as §1, §2, §3
The test system of data set [3] is MCF-7 (human breast cancer). As to the kind of experiment: MTT cytotoxicity assay, MCF-7. It is filed as cell-based. Particulars: Homo sapiens, MCF7, 72 h, maximal tested concentration 20.0 μM. The protocol: as §1, §2, §3
(Tetrazolium assays rely on reduction of a dye to a coloured formazan, in cell work by metabolically active cells.)

Data set [4] deals with Hela (human cervical cancer). As to the kind of experiment: MTT cytotoxicity assay, Hela. Conditions: Homo sapiens, HeLa, 72 h, maximal tested concentration 20.0 μM. It is filed as cell-based. The protocol: as §1, §2, §3
Data set [5] relates to Madin-Darby canine kidney cell line (MDCK). As to the kind of experiment: MTT cytotoxicity (nephrotoxicity/selectivity) assay, MDCK. Particulars: Canis lupus familiaris, maximal tested concentration 20.0 μM, toxicity to MDCK kidney cells. It is filed as cell-based.
Data set [6] concerns Bel-7402 (human hepatocellular carcinoma). Put plainly: MTT cytotoxicity assay, Bel-7402. It is filed as cell-based. Particulars: Homo sapiens, Bel-7402, 72 h, maximal tested concentration 20.0 μM. The protocol:
as §1, §2, §3

Each structure is given as a SMILES string. A value given as a limit tells only on which side of the number the result lay.

A word on the melting point: it is the temperature of the solid-liquid transition. By IC50 is commonly meant the concentration that inhibits the measured activity by half. Higher therefore signals lower potency. With `C=C(C)[C@@H]1CC[C@]2(C(=O)OCc3nc(C)c(C)nc3C)CC[C@]3(C)C(CCC4[C@@]5(C)CC[C@H](OC(=O)c6nc(C)c(C)nc6C)C(C)(C)C5CC[C@]43C)C12` (stereo partly drawn) [Compound 4b, 3β-Hydroxy-(3,5,6-trimethylpyrazin-2-carbonyl)-lup-20(29)-ene-28-oic acid-3,5,6-trimethylpyrazin-2-methyl ester], the melting point fell in the range of 142.1 to 142.9 °C. Besides, in data set [1], the 50% inhibitory concentration (IC50) is more than 20 µM. This molecule also showed an IC50 in data set [2] of 13.2 µM. The molecule also returned a half-inhibitory concentration (IC50) in data set [3] of 12.9 µM. Further, the IC50 in data set [4] is more than 20 µM. This molecule had a half-inhibitory concentration (IC50) in data set [5] of more than 20 µM. The molecule also yielded an IC50 in data set [6] of more than 20 µM.
The molecule `C=C(C)C1CCC2(C(=O)O)CCC3(C)C(CCC4C5(C)CCC(OC(=O)c6nc(C)c(C)nc6C)C(C)(C)C5CCC43C)C12` (stereo not drawn) [Compound 4d, 3β-Hydroxy-(3,5,6-trimethylpyrazin-2-carbonyl)-lup-20(29)-ene-28-oic acid] displayed a melting point of 279.5 to 280.3 °C. The molecule also returned an IC50 in data set [1] of 8.38 µM. This molecule showed a concentration for half-maximal inhibition (IC50) in data set [2] of 7.42 µM. The molecule further had an IC50 in data set [3] of 6.22 µM. Also, the IC50 in data set [4] was determined as 12.2 µM. The IC50 in data set [5] is more than 20 µM. The half-maximal inhibitory concentration (IC50) in data set [6] came to 13.3 µM.

The values are drawn from PMC4613240, “A Series of New Ligustrazine-Triterpenes Derivatives as Anti-Tumor Agents: Design, Synthesis, and Biological Evaluation” (International Journal of Molecular Sciences, 2015).
